Residues, ends and D or L forms follow the SMILES beside them. *: point of attachment. Cbz = O=C(OCc1ccccc1)*; OtBu = CC(C)(C)O*; βAla = NCCC(=O)O
SMILES | melting point
Cn1c(=O)n(CCC[C@@H](NS(=O)(=O)c2ccc(-c3ccccc3)cc2)C(=O)O)c(=O)c2ccccc21 | 222 to 224 °C
N=c1sc2cc(OC(F)(F)F)ccc2n1CC(N)=O | 228 °C
COC(=O)[C@H](Cc1ccccc1)NC(=O)c1cnccn1 | 152 to 155 °C
CCCCCCCCCCCCCCCC(=O)NC(C)CO (stereo not drawn) | 75 to 76 °C
COC(=O)c1ccc(Cc2cccc3ccc(C=C(C)C(=O)O)cc23)c(OC)c1 | 187 to 188 °C
O=C(NC(CS)Cc1ccccc1)N1CCSCC1 (single isomer, unassigned; (+)) | 98 to 100 °C
OCc1ccc2cc(O)ccc2c1 | 179 to 181 °C
CC(C)C(NC(=O)C(CC(=O)OC(C)(C)C)NC(=O)CCNC(=O)OCc1ccccc1)C(=O)OC(C)(C)C (stereo not drawn) ({Cbz-βAla}-Asp(OtBu)-Val-OtBu; configuration not given here) | 126 °C
COc1ccc2c(c1)CCC1C2CCC2(C)C(NCCCCCCN)CCC12 (stereo not drawn) | 93 to 94 °C
Cc1cccc2nc(C(S)c3ncnc4[nH]cnc34)n(-c3ccccc3F)c(=O)c12 (stereo not drawn) | 152 °C
Cc1nc(Nc2ccccc2)sc1-c1nc2ccccc2c(=O)n1-c1ccccc1Cl | 228 to 229 °C
O=C(c1ccc2nonc2c1)N1CC2CCC1C2 (stereo not drawn) | 92 to 93 °C
CCOC(=O)c1ccc(-c2nc(COc3ccc(COc4nn(-c5ccccc5)cc4/C=C/P(=O)(OCC)OCC)cc3OC)c(C)o2)s1 | 114 to 115 °C
Nc1ccc(Cl)c(N=C2NCCN2)c1 | 154 to 155 °C
COc1ccc(-c2nnc3c4ccccc4c(Nc4ccc(N)cc4)nn23)cc1 | 295 °C
CC1CCc2c(c3cc(Br)ccc3n2C(=O)OC(C)(C)C)C1 (stereo not drawn) | 122 °C
CN(Cc1ccc(COC(=O)NC(Cc2ccccc2)C(=O)O)cc1)c1ccccc1 (stereo not drawn) | 69.6 to 70.1 °C
CCCc1cc(C(=O)O)cc(CCC)c1OCCCCCCc1cccc(O)c1O | 94 to 96 °C
CC(N)=CC(=O)CS(=O)(=O)NC(C)C | 119 to 121 °C
COc1cc(OC)nc(Oc2cccc(O)c2C(=O)OCc2ccccc2)n1 | 63 to 65 °C
CCc1cc(Cc2cc(CC)c(N=C=O)c(CC)c2)cc(CC)c1N=C=O | 56 to 57 °C
CC(C)Oc1cc(O)c(C(=O)C=Cc2ccccc2OC(C)C)c(OC(C)C)c1 | 119 to 120 °C
COc1ccccc1-n1c(-c2sc(Nc3ccccc3)nc2-c2ccccc2)nc2ccccc2c1=O | 224 to 225 °C

SMILES | melting point
CC(=O)Nc1occ(C(C)(C)C)c1C#N | 135 °C
O=C(O)C(=O)N1CCC(Cc2ccc(Cl)cc2)CC1 | 147 to 148 °C
Nc1nc(N)c2cc(Cc3ccc4ccccc4c3)ccc2n1 | 256 to 257 °C
CN1CC2CCCC(C1)C2=NO | 111 to 112 °C
CCC(=O)N[C@H]1CC[C@H](CCN2CCC(c3cccc4c3CCO4)CC2)CC1 | 192 °C
FC(F)(F)c1cccc(Nc2nc(NCc3ccco3)nc(-c3ccccc3)n2)c1 | 133 to 134 °C
Cc1cc(O)cc2c1CCC2(C)C | 80 to 81 °C
CC(CO)COc1ccc(C#Cc2ccc(C(=O)O)cc2)cc1C12CC3CC(CC(C3)C1)C2 (stereo not drawn) | 260 to 262 °C
COC(=O)c1ccc(O)c(C2CCCC2)c1 | 114 to 116 °C
COc1ccnc2[nH]c(CO)cc12 | 210 to 212 °C
CCNC1CCc2c(ccc(OC)c2OC)C1O (stereo not drawn) | 125 to 128 °C
COc1c(O)ccc(C(=O)c2ccccc2)c1Cl | 123 to 125 °C
CNCC(O)c1cc(OC)c(O)c(OC)c1 (stereo not drawn) | 175 °C
COC(=O)[C@H](O)[C@@H](O)C(C)C | 32 to 34 °C
O=C1C=CC(O)(c2ccc(OCCCCl)cc2)O1 (stereo not drawn) | 219 to 220 °C
O=C(c1ccccc1)c1cccnc1-c1nc(NCc2ccc(Cl)cc2)c2ccccc2n1 | 147 to 149 °C
COc1ccc(CCNCC(O)CO)cc1OC (stereo not drawn) | 80 to 82 °C
CCCCCCCCCOC(=O)c1cc(-c2csc(-c3ccc(OCC)c(OCC)c3)n2)ccc1O | 67 to 68 °C
OC(CCCN1CC=C(c2cc(C(F)(F)F)on2)CC1)c1ccc(F)cc1 (stereo not drawn) | 120 to 122 °C
CC(C)NC(=O)C(C)(C)C | 106 to 108 °C
CC(=O)SC[C@@H](C(=O)N[C@H](CC(C)C)c1nnn[nH]1)C(F)(F)F | 180 to 184 °C
Oc1ccc(-c2[nH]c3ccccc3c2Cn2ccnc2)cc1 | 245 to 247 °C
CN1CCC(c2c[nH]c3ccc(NC(=O)c4ccc(Cl)s4)nc23)CC1 | 118 to 120 °C

SMILES | melting point
O=C(CCl)Nc1c(I)cc(I)c(C(=O)O)c1I | 253 to 255 °C
CCCCOc1ccc(S(=O)(=O)C2(C(=O)O)CCN(C)CC2)cc1 | 118 °C
OC1CCN(CC(O)c2cc(-c3ccccc3)on2)CC1 (stereo not drawn) | 117 to 119 °C
COc1ccc2nccc(CCC[C@@H]3CCN(CCCc4cccs4)C[C@@H]3C(=O)O)c2c1 | 60 °C
CCCn1cc(Cc2ccc(C(=O)O)cc2OC)c2cc(CC3CCN(C)C3=O)ccc21 (stereo not drawn) | 98 to 107 °C
CC(C)CNC(=O)c1cccc(-c2ccnc3c(C(=O)c4cccs4)cnn23)c1 | 174 to 177 °C
CCCN1CCN(CCCOc2cc3ncc(C#N)c(Nc4cc(OC)c(Cl)cc4Cl)c3cc2OC)CC1 | 97 to 101 °C
Cn1c(COc2ccc(Cn3cc(CCC(=O)O)c(-c4ccccc4)n3)cc2)nc2ccccc21 | 225 to 226 °C
COc1ccc(C(O)c2cccc(OCc3ccccc3)c2)cc1 (stereo not drawn) | 50 to 60 °C
COc1ccc(S(=O)(=O)N2CCc3cccc(-c4ccc(O)cc4)c32)cc1 | 179 to 180 °C
CCCC(=O)CCCC(=O)CCCSCCCC(C)(C)C(=O)OCC | 104 to 105 °C
N#Cc1ccc(-n2c(N)nc3ccccc32)cc1Cl | 245 to 248 °C
OCC1OC2CC(O)CC(C2)O1 (stereo not drawn) | 146 to 149 °C
O=C1NCCCN1C1(CO)CCN(Cc2ccccc2)CC1 | 210 °C
OCc1nc(-c2ccc3nc(-c4ccc(Cl)cc4)cn3c2)cs1 | 190 to 192 °C
CCC(ON=c1c2nccc3cccc(c32)n2cccc12)C(=O)O (stereo not drawn) | 180 °C
N#Cc1c(N2CCCN(c3cccc(C(F)(F)F)c3)CC2)cc[nH]c1=S | 247 to 248 °C
Cc1nc2c(OCc3ccccc3F)cccn2c1CC#N | 172 to 173 °C
CCOc1ccc(-c2ccc3c(c2)C=C(C(=O)Nc2ccc(CN(C)C4CCC(=O)CC4)cc2)CCO3)cc1 | 146 to 148 °C
CCCC(CCCCNC(=O)c1cc2ccc(C3OC(CO)C(O)C(O)C3O)cc2oc1=O)C(=O)O (stereo not drawn) | 162 °C
COC(=O)c1cccc(OC(F)(F)C(F)Br)c1 (stereo not drawn) | 88 to 90 °C
CCOC(=O)CN1CCN(C2=Nc3ccccc3Oc3ccc(Cl)cc32)CC1 | 123 to 124 °C

Now from value to compound:

melting point | SMILES
235 to 242 °C | Cc1cccc(=O)c(NC(=O)C2=C(O)c3ccccc3S(=O)(=O)N2C)c1
110 to 111 °C | COc1cc(Cl)cc(Cl)c1C=O
127 to 130 °C | Cc1ccc(S(=O)(=O)OCC2Cc3cc(Cl)cc(-c4ccccc4)c3O2)cc1 (stereo not drawn)
243 to 245 °C | CC1=Cc2cc(Br)cc(S(N)(=O)=O)c2OS1(=O)=O
> 210 °C | CC(C)(C)OC(=O)N1CCn2c(C#N)c(-c3cccc(F)c3)c(C(=O)O)c2C1
216 to 220 °C | CCOC(=O)Oc1ccc2nc(S)n(C)c(=O)c2c1
197 to 200 °C | CCOc1cc(CF)nc2nc(S(=O)(=O)Nc3c(Cl)ccc(C)c3Cl)nn12
210 to 212 °C | CCCCc1nc2c(N)nc3ccc(OCCC4CCNCC4)cc3c2n1C
78 to 79 °C | Cc1ccc(C(=O)C2C(=O)CCC(C)(C)C2=O)cc1 (stereo not drawn)
189 to 190 °C | CCc1cccc2c3c([nH]c12)C(CC)(CC(N)=O)OCC3 (stereo not drawn)
217 to 218 °C | Cc1cc2c(c(C)c1NC(=O)CC(C)(C)C)C(O)C(C)(C)O2 (stereo not drawn)
130 to 133 °C | CCn1c2ccccc2c2cc3cccc(C=O)c3cc21
259 to 263 °C | CC1(C)C(=O)NC(=O)c2c1ccc(N)c2[N+](=O)[O-]
186 to 190 °C | N#Cc1c[nH]c2ccc([N+](=O)[O-])cc12
85 to 88 °C | Cc1c(C(=O)Cl)ccc(S(C)(=O)=O)c1-c1ccon1
148 to 150 °C | COc1ccc(N(C(C)C)S(=O)(=O)c2ccc(C)cc2)c([N+](=O)[O-])c1
106 °C | COc1ccc2c(c1)C1=C(SCC3(CCN(CC(O)Cc4ccccc4)CC3)O1)C(=O)C2=O (stereo not drawn)
185 to 187 °C | CNC(=O)c1ccccc1Nc1nc(Nc2c(OC)ccc3c2C(=O)N(C)CCC3)ncc1Cl

melting point | SMILES
129 to 132 °C | O=Cc1cc(Br)ccc1Oc1ccc(Cl)c(Cl)c1
169 to 171 °C | COCN1C(=O)OC(C)(C)c2cc(-c3cc(F)cc(C#N)c3)ccc21
226 to 228 °C | CCC1CCn2c(nc(-c3ccncn3)cc2=O)N1 (stereo not drawn)
242 to 244 °C | O=c1c2cc([N+](=O)[O-])ccc2cc2n1CCCS2(=O)=O
85.5 to 87 °C | COc1ccc(S(=O)(=O)Nc2ccccc2OC)cc1
136 to 138 °C | Cc1cc(-c2ccc(Cl)c(Cl)c2)n(-c2ccc(S(N)(=O)=O)cc2)c1
108 to 110 °C | CCCCCCCCNC(=O)c1cnc2cccc(C)n2c1=O
69 to 71 °C | CCCCCCCN1C(=O)C2CC(c3ccc(N)cc3)(C2)C1=O
258 to 260 °C | CN1CCC(c2[nH]c(=O)c3ccccc3c2-c2ccccc2)CC1
57 to 59 °C | COC(=O)c1ccc2c(c1C(=O)OC)OCO2
110 to 111 °C | CCCCCCCCCCCCOc1cccc(C2=C(O)C(O)(Cc3ccccc3)N(C)C2=O)c1 (stereo not drawn)
148 to 150 °C | CCN(CC)CC(O)c1c[nH]c2c1ccc1c3ccccc3[nH]c12 (stereo not drawn)
125 °C | Cc1ccc(-c2ccc(Cl)cc2)cc1C#CC(C)(C)OCC(=O)O
150 to 153 °C | COc1cccc2c1Cc1ccccc1C2(CC(=O)O)CC(=O)O
151 to 153 °C | COc1ccc(CC2NC(=O)NC2=O)cc1OC1CCCC1 (stereo not drawn)
128 to 129 °C | Cc1ccccc1CC(=O)c1cc(O)c(O)c([N+](=O)[O-])c1
136 to 140 °C | CCOC(=O)C1(NC(=O)CC)Cc2cccc3c2N(CCC3)C1=O (stereo not drawn)
